Results from EP0250134B1, “Method for combating swine dysentery” (IMCERA Group Inc., priority 1986, dated 1987).
In brackets after ≈: the same amount, converted by molar mass. Counter-ions that a name gives are not always drawn. Like-named read-outs stand apart in the source and are kept apart here.

System: Treponema hyodysenteriae
Test: in vitro Streak Plate Test Method (inhibition endpoint / MIC on trypticase soy blood agar)
Assay type: cell-based
Settings: for Inhibition Endpoints / MIC: first number = growth occurred, second = no growth, 48 hrs at 39°C anaerobic; for MIC: Brachyspira hyodysenteriae, 48 h
Procedure: The following test procedure was used to evaluate the anti-Treponema hyodysenteriae activity of the compounds in the present invention. This test procedure establishes the lowest concentration of the compounds that will inhibit the growth on cultures of Treponema hyodysenteriae in an in vitro Streak Plate Test Method.
Procedure: Stock solutions containing 10,000, 1,000, 100, 10, 1.0, and 0.1, micrograms per milliliters of the compound to be tested were prepared. The final dilutions to establish the test concentrations in the media were made by placing the correct volume of stock solution in a petri dish, adding the media (trypticase soy blood agar), and mixing before the media solidified. After the media solidified, the test cultures of Treponema hyodysenteriae were streaked onto the surface of the agar. Petri dishes containing media without test samples were also set up as culture controls and are inoculated in the same manner. All inoculated plates were incubated at 39°C in anaerobic jars for 48 hrs. Inhibition endpoints were then determined by observing the test plates for growth or no growth of the test cultures at the various concentrations of the compounds. If the culture growth occured at one concentration but not at the next higher concentration, the inhibitory endpoint or MIC (Minimum Inhibitory Concentration) was considered the higher concentration.
Referring to Table 1, the culture numbers refer to field isolate strains of Treponema hyodysenteriae. These field isolates were isolated in Illinois, Iowa, and Nebraska. The numbers giving the results in the Table are read as follows: the first number for each isolate and compound tested corresponds to the concentration in micrograms per milliliter where growth occurred and the second number corresponds to the concentration in micrograms per milliliter where no growth occurred.

[1] = Culture No. 8064 (field isolate)
[2] = Culture No. 8072 (field isolate)
[3] = Culture No. 8076 (field isolate)
[4] = Culture No. 8080 (field isolate)
[5] = Culture No. 8087 (field isolate)
[6] = Culture No. 8098 (field isolate)
[7] = Culture No. 8125 (field isolate)
[8] = Culture No. B-100 (field isolate)
[9] = Culture No. B-140 (field isolate)

Molecule | Inhibition Endpoints [1] | Inhibition Endpoints [2] | Inhibition Endpoints [3] | Inhibition Endpoints [4] | Inhibition Endpoints [5] | Inhibition Endpoints [6] | Inhibition Endpoints [7] | Inhibition Endpoints [8] | Inhibition Endpoints [9] | further results
Mn Lysocellin | .1-.5 µgs/ml | .1-.5 µgs/ml | .1-.5 µgs/ml | .1-.5 µgs/ml | .1-.5 µgs/ml | .1-.5 µgs/ml | .1-.5 µgs/ml | .1-.5 µgs/ml | .1-.5 µgs/ml | –
CCC(C(=O)C(C)C(O)C(C)CCc1ccc(C)c(O)c1C(=O)O)C1OC(CC)(C2CCC(O)(CC)C(C)O2)CC1C (centres unmarked) [Lasalocid Na, reference compound] | – | – | – | – | – | – | – | – | – | MIC (Culture No. 8064 (field isolate), read-out: Inhibition Endpoints): 1 to 5 µg/mL (≈ 1.69 to 8.46 µM); MIC (Culture No. 8072 (field isolate), read-out: Inhibition Endpoints): 1 to 5 µg/mL (≈ 1.69 to 8.46 µM); MIC (Culture No. 8076 (field isolate), read-out: Inhibition Endpoints): 1 to 5 µg/mL (≈ 1.69 to 8.46 µM); MIC (Culture No. 8080 (field isolate), read-out: Inhibition Endpoints): 0.5 to 1 µg/mL (≈ 0.846 to 1.69 µM); MIC (Culture No. 8087 (field isolate), read-out: Inhibition Endpoints): 1 to 5 µg/mL (≈ 1.69 to 8.46 µM); MIC (Culture No. 8098 (field isolate), read-out: Inhibition Endpoints): 1 to 5 µg/mL (≈ 1.69 to 8.46 µM); MIC (Culture No. 8125 (field isolate), read-out: Inhibition Endpoints): 1 to 5 µg/mL (≈ 1.69 to 8.46 µM); MIC (Culture No. B-100 (field isolate), read-out: Inhibition Endpoints): 0.5 to 1 µg/mL (≈ 0.846 to 1.69 µM); MIC (Culture No. B-140 (field isolate), read-out: Inhibition Endpoints): 1 to 5 µg/mL (≈ 1.69 to 8.46 µM)
Co Lysocellin | .05-.1 µgs/ml | <.01 µgs/ml | .05-.1 µgs/ml | .05-.1 µgs/ml | .05-.1 µgs/ml | .05-.1 µgs/ml | <.01 µgs/ml | <.01 µgs/ml | <.01 µgs/ml | –
Na Zn Lysocellin | 1.0-5.0 µgs/ml | 1.0-5.0 µgs/ml | 1.0-5.0 µgs/ml | .5-1.0 µgs/ml | 1.0-5.0 µgs/ml | .1-.5 µgs/ml | 1.0-5.0 µgs/ml | 1.0-5.0 µgs/ml | 1.0-5.0 µgs/ml | –
Ni Lysocellin | .05-.1 µgs/ml | <.01 µgs/ml | .05-.1 µgs/ml | .1-.5 µgs/ml | .05-.1 µgs/ml | .05-.1 µgs/ml | <.01 µgs/ml | <.01 µgs/ml | <.01 µgs/ml | –
Carriomycin Na [reference compound] | .01-.05 µgs/ml | <.01 µgs/ml | <.01 µgs/ml | .01-.05 µgs/ml | .01-.05 µgs/ml | <.01 µgs/ml | <.01 µgs/ml | – | – | activity compared to the controls (summary of Table 1): comparable activity
Lysocellin Na | .1-.5 µgs/ml | .1-.5 µgs/ml | .1-.5 µgs/ml | .1-.5 µgs/ml | .1-.5 µgs/ml | .1-.5 µgs/ml | .1-.5 µgs/ml | .1-.5 µgs/ml | .1-.5 µgs/ml | –
CCC[C@@H]1C[C@@H](C(=O)N[C@@H]([C@H]2O[C@H](SC)[C@H](O)[C@@H](O)[C@H]2O)[C@@H](C)O)N(C)C1 [Lincomycin HCL, reference compound] | – | – | – | – | – | – | – | – | – | MIC (read-out: Inhibition Endpoints, Culture No. 8064 (field isolate)): 10 to 50 µg/mL; MIC (read-out: Inhibition Endpoints, Culture No. 8072 (field isolate)): 10 to 50 µg/mL; MIC (read-out: Inhibition Endpoints, Culture No. 8076 (field isolate)): 10 to 50 µg/mL; MIC (read-out: Inhibition Endpoints, Culture No. 8080 (field isolate)): 10 to 50 µg/mL; MIC (read-out: Inhibition Endpoints, Culture No. 8087 (field isolate)): 10 to 50 µg/mL; MIC (read-out: Inhibition Endpoints, Culture No. 8098 (field isolate)): 10 to 50 µg/mL; MIC (read-out: Inhibition Endpoints, Culture No. 8125 (field isolate)): 10 to 50 µg/mL; MIC (read-out: Inhibition Endpoints, Culture No. B-100 (field isolate)): 1 to 5 µg/mL; MIC (read-out: Inhibition Endpoints, Culture No. B-140 (field isolate)): 0.05 to 0.1 µg/mL
Lysocellin Free Acid | .1-.5 µgs/ml | .01-.05 µgs/ml | <.01 µgs/ml | .1-.5 µgs/ml | .05-.1 µgs/ml | .05-.1 µgs/ml | .01-.05 µgs/ml | .01-.05 µgs/ml | .01-.1 µgs/ml | –
Zn Lysocellin | .1-.5 µgs/ml | .1-.5 µgs/ml | .1-.5 µgs/ml | .1-.5 µgs/ml | .05-.1 µgs/ml | .1-.5 µgs/ml | .05-.1 µgs/ml | .05-.1 µgs/ml | .05-.1 µgs/ml | –
Cu Lysocellin | .1-.5 µgs/ml | .05-.1 µgs/ml | .05-.1 µgs/ml | .1-.5 µgs/ml | .1-.5 µgs/ml | .05-.1 µgs/ml | .1-.5 µgs/ml | .1-.5 µgs/ml | .1-.5 µgs/ml | –
